Experimental data from patent publication US20240124456A1, “AZA-ERGOLINE DERIVATIVE AND PREPARATION METHOD THEREFOR AND APPLICATION THEREOF” (SHANGHAITECH UNIVERSITY, priority 2021, published 2024).
pEC50, pKi: −log10 of the molar value.

What was measured:
dopamine D2 receptors [1] = target: T1, dopamine D2 receptors (Homo sapiens (Human), UniProt P14416); experiment: β-arrestin2 recruitment BRET, dopamine D2 receptor functional activity; format: cell-based; conditions: for pEC50: HEK-293T, I-1 to 19 n=3, I-20 to 27 single determination, read-out: β-arrestin2 BRET EC50; for Emax: read-out: β-arrestin2 BRET Emax % ± SEM
Experimental: To examine the downstream f3-arrestin2 signaling pathway mediated by dopamine D2 receptors, 6 cm dish was used for transfection with 500 […] of dopamine D2 receptors fused to seaweed luciferase (D2-Rluc), 500 μg of G protein-coupled receptor kinase 2 (GRK2), 2500 μg of β-arrestin2 fused to green fluorescent protein (GFP2-ARRB2) and 14 μL of transfection reagent PEI. The next day, the overgrown cells were digested and plated a 96-well plate at the amount of cells contained in a 6 cm culture dish with overgrown cells, and 100 μL of culture medium was added to each well. On the third day, the drugs were added for test.
(§1) To examine downstream G-protein signaling pathway mediated by dopamine D2 receptors, on the first day, 6 cm dish was used for transfection with 1μg of dopamine D2 receptors, 1μg of Gαi1 containing C-terminal seaweed luciferase (GGαi1-Rluc), 1 μg of […], 1 μg of Gγ9 containing C-terminal green fluorescent protein (Gγ9-GFP) and 16 μL of PEI. At the same time, in order to examine the downstream f3-arrestin2 signaling pathway mediated by dopamine D2 receptors, on the first day, 6 cm dish was used for transfection with 500 μg of dopamine D2 receptors containing C-terminal seaweed luciferase (D2-Rluc), 500 μg of G protein-coupled receptor kinase 2 (GRK2), 2500 μg of […] containing N-terminal green fluorescent protein (GFP2-ARRB2) and 14 μL of PEI. The next day, the overgrown cells were digested and plated a 96-well plate at the amount of cells contained in a 6 cm culture dish with overgrown cells, and 100 μL of culture medium was added to each well. On the third day, the drugs were added for test. The 96-well plate was taken out from the cell culture room to remove the culture medium, 40 μL of the substrate coelenterazine 400a (final concentration of 5 μM) was added to each well, and then 20 μL of different drugs were added in turn from left to right to ensure that the final concentration of the drugs decreased gradually from bottom to top, and each treatment was repeated twice. Finally, the prepared samples were loaded on machine for test. The machine reading value reflected the intracellular β-arrestin2 on the membrane and the dissociation of G protein trimer. The former indicated the degree of activation of the β-arrestin2 signaling pathway downstream of the dopamine D2 receptors, and the latter indicated the degree of activation of the G protein signaling pathway downstream of the dopamine D2 receptors.

dopamine D2 receptors [2] = target: T1, dopamine D2 receptors; experiment: Radioligand competition binding, affinity for dopamine D2 receptors ([3H]-Methylspiperone); conditions: [3H]-Methylspiperone (0.3-0.5 nM), HEK-293T membranes; for pKi: I-1 to 19 n=3, I-20 to 27 single determination; for Affinity pKi ± SEM: n=3
Experimental: A 10 cm diameter dish was used for transfection with 10 ng of the dopamine D2 receptors and 40 μL of PEI. After 48 hours, the 10 cm dish was taken out from the cell culture room and the cultured cells had expressed the dopamine D2 receptors. A vacuum pump was used to suck off the culture medium, 3 mL of lysis buffer (50 mM Tris hydrochloric acid buffer, pH 7.4) was added to each well, and the cells were placed in a 4° C. freezer for 10 minutes. After the cells were detached, the cells were transferred to a 15 mL centrifuge tube and centrifuged at 1500 rpm for 5 minutes at 4° C., and the supernatant was discarded. The cell pellet was transferred to a tissue homogenizer, and 3 mL of lysis buffer was added and fully ground until the cells were broken. Then, cell suspension was equally divided into several EP tubes, centrifuged at 4° C. and 12000 rpm for 5 min, and the supernatant was discarded. The precipitate was the cell membrane component containing the dopamine D2 receptors and stored at −80° C.
First, a standard binding buffer (50 mM HEPES, 50 mM NaCl, 5 mM MgCl2, 0.5 mM EDTA, pH 7.4) was added to the cell membrane component containing the dopamine D2 receptors, and the cell membrane was disrupted and resuspended with an electric tissue homogenizer. 30 μL of membrane protein suspension was added to each well of a 96-well plate. Then, 30 μL of different drugs were added to the 96-well plate from left to right to ensure that the final drug concentrations were 10^−5 M, 10^−6 M, 10^−7 M, 10^−8 M, 10^−9 M and 0 M, with two replicates per treatment. Next, 30 μL [^3H]-N-Methylspiperone was added to each well of the 96-well plate, and the plate was incubated for 2 hours at room temperature in the dark. The unbound isotopes were removed by Whatman GF/C filter membrane and vacuum pump, and the isotopes bound to the receptors were detected by MicroBeta isotope liquid scintillation counter.
The affinity of the compounds of the present invention for the dopamine D2 receptors was determined by the method of radioligand competition experiment. In the first step, a cell membrane component containing specific dopamine D2 receptors was prepared. A10 cm dish was used for transfection with 10 ng of the dopamine D2 receptors and 40 μL of PEI. After 48 hours, the 10 cm dish was taken out from the cell culture room and the cultured cells had expressed the dopamine D2 receptors. A vacuum pump was used to suck off the culture medium, 3 mL of lysis buffer was added to each well, and the cells were placed in a 4° C. freezer for 10 minutes. After the cells were detached, the cells were transferred to a 15 mL centrifuge tube and centrifuged at 1500 rpm for 5 minutes at 4° C., and the supernatant was discarded. The cell pellet was transferred to a tissue homogenizer, and 3 mL of lysis buffer was added and fully ground until the cells were broken. Then, cell suspension was equally divided into several EP tubes, centrifuged at 4° C. and 12000 rpm for 5 min, and the supernatant was discarded. The precipitate was the cell membrane component containing the dopamine D2 receptors. […] First, a standard binding buffer was added to the cell membrane component containing the dopamine D2 receptors, and the cell membrane was disrupted and resuspended with an electric tissue homogenizer. 30 μL of membrane protein suspension was added to each well of a 96-well plate. Then, 30 μL of different drugs were added to the 96-well plate from left to right to ensure that the final drug concentrations were 10^−5 M, 10^−6 M, 10^−7 M, 10^−8 M, 10^−9 M and 0 M, with two replicates per treatment. Next, 30 μL [^3H]-Methylspiperone was added to each well of the 96-well plate. The plate was incubated for 2 hours at room temperature in the dark. Detection. The machine reading value reflected the amount of [^3H]-Methylspiperone bound on the membrane, and after further data processing, the affinity Ki value of different compounds for dopamine D2 receptors was obtained.

dopamine D2 receptors [3] = target: T1, dopamine D2 receptors; experiment: G protein Gαi1-γ9 dissociation BRET, dopamine D2 receptor functional activity; format: cell-based; conditions: for pEC50: HEK-293T, I-1 to 19 n=3, I-20 to 27 single determination, read-out: Gai1 BRET EC50; for Emax: read-out: Gai1 BRET Emax % ± SEM
Experimental: To examine downstream G protein signaling mediated by dopamine D2 receptors, 6 cm dish was used for transfection with 1μg of dopamine D2 receptors, 1μg of Gαi1 fused to seaweed luciferase (Gαi1-Rluc), 1 μg of Gβ3, 1 μg of Gγ9 fused to green fluorescent protein (Gγ9-GFP) and 16 μL of transfection reagent PEI. […] On the third day, the drugs were added for test.
as §1

[4] = relative to the endogenous ligand dopamine

T1 sequence (P14416 whole entry, the tested form may be a part): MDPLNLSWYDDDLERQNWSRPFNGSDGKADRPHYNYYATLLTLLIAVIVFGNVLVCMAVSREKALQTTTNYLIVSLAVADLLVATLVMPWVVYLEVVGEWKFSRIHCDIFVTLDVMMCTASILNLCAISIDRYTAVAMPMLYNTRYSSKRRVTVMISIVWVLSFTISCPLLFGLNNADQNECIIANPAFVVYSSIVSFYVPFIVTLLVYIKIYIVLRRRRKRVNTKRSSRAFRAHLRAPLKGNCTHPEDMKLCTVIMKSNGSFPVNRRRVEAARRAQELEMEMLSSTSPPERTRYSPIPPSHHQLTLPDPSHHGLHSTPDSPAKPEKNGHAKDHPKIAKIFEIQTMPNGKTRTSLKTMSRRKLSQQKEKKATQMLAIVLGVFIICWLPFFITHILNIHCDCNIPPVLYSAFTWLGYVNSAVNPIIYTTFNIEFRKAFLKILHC

| pEC50 (dopamine D2 receptors [1]) | Emax (dopamine D2 receptors [1]; [4]) | pKi (dopamine D2 receptors [2]) | Affinity pKi ± SEM (dopamine D2 receptors [2]) | pEC50 (dopamine D2 receptors [3]) | Emax (dopamine D2 receptors [3]; [4]) | EC50 (dopamine D2 receptors [1]; n=3, read-out: β-arrestin2 BRET pEC50 ± SEM (converted)) | SMILES | β-arrestin2 BRET pEC50 ± SEM (dopamine D2 receptors [1]; n=3) | β-arrestin2 BRET Emax % ± SEM (dopamine D2 receptors [1]; [4]) | Gai1 BRET pEC50 ± SEM (dopamine D2 receptors [3]; n=3) | Gai1 BRET Emax % ± SEM (dopamine D2 receptors [3]; [4]) |
| --- | --- | --- | --- | --- | --- | --- | --- | --- | --- | --- | --- |
| 7.21 | 61% | 7.29 | (7.29 ± 0.10) | 8.18 | 86% |  | c1cc2c3c(c[nH]c3c1)CC1CN(CCCCOc3ccc4c(c3)OCC4)CCN21 (stereo not drawn) [Compound I-6, 8-(4-((2,3-dihydrobenzofuran-6-yl)oxy)butyl)-6,6a,7,8,9,10-hexahydro-4H-pyrazino[1,2-a]pyrrolo[4,3,2-de]quinoline] |  |  |  |  |
| 6.56 | 97% | 6.40 | (6.40 ± 0.12) | 6.86 | 104% |  | O=C1CCc2ccc(OCCCN3CCN4c5cccc6[nH]cc(c56)CC4C3)cc2N1 (stereo not drawn) [Compound I-7, 7-(3-(4,6,6a,7,9,10-hexahydro-8H-pyrazino[1,2-a]pyrrolo[4,3,2-de]quinolin-8-yl)propoxy)-3,4-dihydroquinolin-2(1H)-one] |  |  |  |  |
| 6.96 | 98% | 9.31 | (9.31 ± 0.15) | 7.41 | 94% |  | O=c1ccc2ccc(OCCCN3CCN4c5cccc6[nH]cc(c56)CC4C3)cc2[nH]1 (stereo not drawn) [Compound I-8, 7-(3-(4,6,6a,7,9,10-hexahydro-8H-pyrazino[1,2-a]pyrrolo[4,3,2-de]quinolin-8-yl)propoxy)quinolin-2(1H)-one] |  |  |  |  |
| 7.69 | 89% | 7.57 | (7.57 ± 0.03) | 7.76 | 92% |  | O=C(N[C@H]1CC[C@H](CCN2CCN3c4cccc5[nH]cc(c45)CC3C2)CC1)N1CCCCC1 (stereo partly drawn) [Compound I-12, N-(4-(2-(4,6,6a,7,9,10-hexahydro-8H-pyrazino[1,2-a]pyrrolo[4,3,2-de]quinolin-8-yl)ethyl)trans-cyclohexyl)piperidine-1-carboxamide] |  |  |  |  |
| 7.50 | 80% | 7.11 | (7.11 ± 0.12) | 8.58 | 94% |  | O=S(=O)(N[C@H]1CC[C@H](CCN2CCN3c4cccc5[nH]cc(c45)CC3C2)CC1)c1ccccc1 (stereo partly drawn) [Compound I-15, N-(4-(2-(4,6,6a,7,9,10-hexahydro-8H-pyrazino[1,2-a]pyrrolo[4,3,2-de]quinolin-8-yl)ethyl)cyclohexyl)phenylsulfonamide] |  |  |  |  |
| 6.69 | 38% | 7.25 | (7.25 ± 0.12) | 7.49 | 61% | 0.2 µM | Cc1nc2n(c(=O)c1CCN1CCN3c4cccc5[nH]cc(c45)CC3C1)CCCC2 (stereo not drawn) [Compound I-17, 3-(2-(4,6,6a,7,9,10-hexahydro-8H-pyrazino[1,2-a]pyrrolo[4,3,2-de]quinolin-8-yl)ethyl)-2-methyl-6,7,8,9-tetrahydro-4H-pyrido[1,2-a]pyrimidin-4-one] |  |  |  |  |

Continued, molecule first:

| SMILES | pEC50 (dopamine D2 receptors [1]) | Emax (dopamine D2 receptors [1]; [4]) | pKi (dopamine D2 receptors [2]) | Affinity pKi ± SEM (dopamine D2 receptors [2]) | pEC50 (dopamine D2 receptors [3]) | Emax (dopamine D2 receptors [3]; [4]) | EC50 (dopamine D2 receptors [1]; n=3, read-out: β-arrestin2 BRET pEC50 ± SEM (converted)) | β-arrestin2 BRET pEC50 ± SEM (dopamine D2 receptors [1]; n=3) | β-arrestin2 BRET Emax % ± SEM (dopamine D2 receptors [1]; [4]) | Gai1 BRET pEC50 ± SEM (dopamine D2 receptors [3]; n=3) | Gai1 BRET Emax % ± SEM (dopamine D2 receptors [3]; [4]) |
| --- | --- | --- | --- | --- | --- | --- | --- | --- | --- | --- | --- |
| Cc1noc2cc(OCCCCN3CCN4c5cccc6[nH]cc(c56)CC4C3)ccc12 (stereo not drawn) [Compound I-5, 6-(4-(4,6,6a,7,9,10-hexahydro-8H-pyrazino[1,2-a]pyrrolo[4,3,2-de]quinolin-8-yl)butoxy)-3-methylbenzo[d] is oxazole] | 7.27 | 61% | 7.43 | (7.43 ± 0.09) | 8.13 | 83% |  |  |  |  |  |
| O=C(N[C@H]1CC[C@H](CCN2CCN3c4cccc5[nH]cc(c45)CC3C2)CC1)c1cc2ccccc2[nH]1 (stereo partly drawn) [Compound I-13] | 6.84 |  | 7.79 | (7.79 ± 0.07) | 8.17 |  |  | 6.84 ± 0.12 | 48 ± 8% | 8.17 ± 0.08 | 92 ± 3% |
| O=C(N[C@H]1CC[C@H](CCN2CCN3c4cccc5[nH]cc(c45)CC3C2)CC1)c1ccccc1 (stereo partly drawn) [Compound I-14, N-(4-(2-(4,6,6a,7,9,10-hexahydro-8H-pyrazino[1,2-a]pyrrolo[4,3,2-de]quinolin-8-yl)ethyl)trans-cyclohexyl)benzamide] | 7.56 | 41% | 7.39 | (7.39 ± 0.05) | 8.78 | 72% |  |  |  |  |  |
| Cn1cc2c3c(cccc31)N1CCN(CCCCOc3ccc4ccc(=O)[nH]c4c3)CC1C2 (stereo not drawn) [Compound I-18, 7-(4-(4-methyl-4,6,6a,7,9,10-hexahydro-8H-pyrazino[1,2-a]pyrrolo[4,3,2-de]quinolin-8-yl)butoxy)quinolin-2(1H)-one] | 6.96 | 50% | 7.22 | (7.22 ± 0.02) | 7.96 | 77% |  |  |  |  |  |
